From article PMC11477194, “3-Alkoxy-1-Benzyl-5-Nitroindazole Derivatives Are Potent Antileishmanial Compounds” (International Journal of Molecular Sciences, 2024)
pIC50: −log10 of the molar value.

Experiments:
[1] = system: L. amazonensis promastigotes; parameters: method as in PMID 37915499; conditions: promastigotes of L. amazonensis; previously reported compound; cited from earlier work
[2] = system: promastigotes of L. amazonensis; experiment: Scanning and transmission electron microscopy of treated promastigotes; format: cell-based
Description: The concentrations of compounds selected for the study of structural and ultrastructural damage were those corresponding to IC50, ½ IC50, and ¼ IC50 for compound NV8 (reported in this study) and the previously reported compound VATR 131 [21]. The procedure for the treatment of cultures was the same as that described above for the in vitro tests on promastigotes of L. amazonensis. Two negative controls were used: a DMSO-treated culture (0.1%) and an untreated culture.
At the end of the exposure to the compounds, the parasites were washed once with PBS and immediately fixed with 2.5% glutaraldehyde in PBS for 1 h at room temperature. After a thorough wash with PBS, the parasites were fixed with 1% OsO4 in PBS at 4 °C for 1 h and then washed with PBS. The parasites were dehydrated in increasing concentrations of ethanol. Drying was carried out at the critical point of CO2 in a Samdry 780 apparatus (USA). Next, they were evaporated with gold in a Denton Vacuum Desk (USA). Finally, the samples were observed and micrographed using a JSM 6510LB-JEOL microscope at 30 keV.
Promastigotes were washed with PBS and fixed with 2.5% glutaraldehyde solution for 1 h at 4 °C. They were then fixed with a solution of 1% OsO4 in the same buffer at 4 °C and in darkness for 1 h. Promastigotes were washed with PBS at RT and dehydrated in an ethanolic solution in increasing order by up to 100%. They were then included in the epoxy resin using specific molds for polymerization and maintained at 60 °C for a minimum period of 72 h. The blocks were cut with an ultramicrotome (Reichert Jung, Austria) into thin sections. The slices were stained with uranyl acetate and lead citrate and subsequently micrographed using a JEM 1400 transmission electron microscope (JEOL, Ltd., Tokyo, Japan).

In the case of `CC(=O)OCCn1c2ccc([N+](=O)[O-])cc2c(=O)n1Cc1ccccc1` [VATR 131], the pIC50 [1] is listed as 5.67, the “Structural damage, scanning electron microscopy” value ([2]; L. amazonensis promastigotes treated at IC50, ½ IC50, ¼ IC50) is listed as “an alteration in the morphology of the parasites was observed from the lowest concentration of the compound” and the “Ultrastructural damage, transmission electron microscopy” value ([2]; L. amazonensis promastigotes, 72 h of incubation at IC50, ½ IC50, ¼ IC50) is listed as “very similar to those observed for NV8 at concentrations equivalent to ¼ IC50 and ½ IC50”.
